Assay results as given in ChEMBL document CHEMBL1158988, “Cytotoxic norditerpene lactones from Ileostylus micranthus” (J Nat Prod, 1991).
Converted amounts (≈) assume the structure as drawn.

These compounds were tested on P388 (assay: Cytotoxicity against mouse P388 cells).
Format: functional, cell-based
Compound `CC(C)[C@H]1OC(=O)C=C2[C@@]13O[C@@H]3[C@H]1OC(=O)[C@@]3(C)C[C@H](O)C[C@@]2(C)[C@@H]13` has an IC50 of 0.06 µg/mL (≈ 0.172 µM). Compound `CC(C)[C@H]1OC(=O)C=C2C1=C[C@H]1OC(=O)[C@@]3(C)C[C@H](O)C[C@@]2(C)[C@@H]13` has an IC50 of 0.06 µg/mL (≈ 0.181 µM). With `CC(C)c1oc(=O)cc2c1[C@@H](O)[C@H]1OC(=O)[C@@]3(C)C[C@H]4O[C@H]4[C@@]2(C)[C@@H]13` the IC50 was 0.65 µg/mL (≈ 1.88 µM). Work on `CC(C)c1oc(=O)cc2c1[C@@H](O)[C@H]1OC(=O)[C@@]3(C)[C@@H](O)[C@H]4O[C@H]4[C@@]2(C)[C@@H]13` [NAGILACTONE C] yielded an IC50 of 0.33 µg/mL (≈ 0.911 µM). Work on `C=C[C@H]1OC(=O)C=C2C1=C[C@H]1OC(=O)[C@]3(C)[C@H]1[C@]2(C)[C@H]1O[C@H]1[C@@H]3O` [PODOLACTONE E] yielded an IC50 of under 0.01 µg/mL.
